Results taken from patent publication US8552038B2, “Crystalline forms of thiazolidinedione compound and its manufacturing method” (Daiichi Sankyo Company, Limited, priority 2007, dated 2013).
“Also recorded” adds a separate entry of the source. Counter-ions that a name gives are not always drawn. Like-named read-outs stand apart in the source and are kept apart here.

Tests used:
[1] = tested on: cancer cells; details: cited from earlier work
[2] = tested on: human kidney cancer; details: Test Example 7, cited from earlier work
[3] = tested on: human stomach cancer cells, human breast cancer cells, small cell lung cancer, pancreas cancer cells, prostate cancer cells, kidney cancer cells …; details: Test Example 1 in WO 2007/091622; cited from earlier work
[4] = tested on: human non-small cell lung cancer; details: Test Example 5, cited from earlier work
[5] = tested on: human leukemia cells; details: Test Example 2 in WO 2007/091622; cited from earlier work
[6] = tested on: human colon cancer cell lines; details: Test Example 3 in WO 2007/091622; cited from earlier work
[7] = Solubility test in simulated gastric fluid; format: physicochemical; details: dihydrochloride; for Solubility: 37° C., after 60 minutes, paddle 250 rpm, free body conversion
Method: Solubilities of Crystalline form A and Crystalline form B of Compound (I) in a simulated gastric fluid were measured by the method below (free body conversion).
10 times concentrated Liquid 1 used for the disintegration test of the Japanese Pharmacopoeia (purchased from Kanto Chemical Co., Inc.) was diluted 10-fold with purified water to give a simulated gastric fluid. Approximately 80 mg of the crystalline form for measurement were precisely measured, transferred to a 25 ml volumetric flask, and dissolved in methanol to bring the total volume to 25 ml. 2 ml of the resulting solution were transferred to a 50 ml volumetric flask, and the simulated gastric fluid was added thereto to bring the total volume to 50 ml to give a standard solution.
By using an elution testing machine NTR-6100A (Toyama Sangyo Co., Ltd.), approximately 100 mg of the subject crystalline form were added to 500 ml of the simulated gastric fluid at 37° C., and agitated with a paddle (250 rpm). After 60 minutes, samples were taken from the test solution. The absorbance of the standard solution and test solution samples was measured at 289 nm and 360 nm by using a UV visible spectrophotometer.
weighing amount of the crystalline form used for the preparation of the standard solution (mg): WS;
absorbance of the standard solution at 289 nm: AS289;
absorbance of the standard solution at 360 nm: AS360;
absorbance of the test solution at 289 nm: AT289;
absorbance of the test solution at 360 nm: AT360;
molecular weight of the dihydrochloride monohydrate of Compound (I): 593.52; and
molecular weight of the free body of Compound (I): 502.58

[8] = biological target: T1, peroxisome proliferator-activated receptor (PPAR) γ (Homo sapiens, UniProt P37231); details: disclosed in Patent Literature 1-5; cited from earlier work
T1 sequence (P37231 1-505): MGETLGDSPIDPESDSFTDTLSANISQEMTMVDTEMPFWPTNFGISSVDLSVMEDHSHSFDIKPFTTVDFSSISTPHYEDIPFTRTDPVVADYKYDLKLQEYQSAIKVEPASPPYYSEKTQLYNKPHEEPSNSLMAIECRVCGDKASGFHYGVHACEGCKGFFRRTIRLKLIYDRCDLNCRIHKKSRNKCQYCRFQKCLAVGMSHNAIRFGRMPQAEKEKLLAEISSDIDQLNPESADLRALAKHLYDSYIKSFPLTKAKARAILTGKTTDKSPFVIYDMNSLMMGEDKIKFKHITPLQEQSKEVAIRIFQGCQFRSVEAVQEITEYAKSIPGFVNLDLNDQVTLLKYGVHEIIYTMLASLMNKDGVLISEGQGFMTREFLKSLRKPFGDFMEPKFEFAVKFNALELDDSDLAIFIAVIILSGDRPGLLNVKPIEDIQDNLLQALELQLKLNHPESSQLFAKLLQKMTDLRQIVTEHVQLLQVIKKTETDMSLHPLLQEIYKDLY

## Cc1cc(Oc2ccc3nc(COc4ccc(CC5SC(=O)NC5=O)cc4)n(C)c3c2)cc(C)c1N (centres unmarked) [dihydrochloride of Compound (I), 5-(4-{[6-(4-amino-3,5-dimethylphenoxy)-1-methyl-1-H-benzimidazol-2-yl]methoxy}benzyl)-1,3-thiazolidine-2,4-dione dihydrochloride]
[1]; in combination with a VEGFR inhibitor or a Raf kinase inhibitor, Test Example 6
  activity to suppress proliferation in cancer cells, combination: synergetic activity to suppress proliferation
[1]; in combination with an epidermal growth factor receptor (EGFR) inhibitor, Test Example 4
  activity to suppress proliferation in cancer cells, combination: synergetic activity to suppress proliferation
[2]; alone
  antitumor activity: exerts an antitumor activity
[2]; in combination with a VEGFR inhibitor or a Raf kinase inhibitor
  antitumor activity, combination: enhanced antitumor activity
[3]
  activity to suppress proliferation of cancer cells: significant activity to suppress proliferation
[4]; alone
  antitumor activity: exerts an antitumor activity
[4]; in combination with an EGFR inhibitor
  antitumor activity, combination: enhanced antitumor activity
[5]
  proliferation suppressing activity in human leukemia cells: inhibits significantly proliferation suppressing activity
[6]
  antitumor activity in vivo: significant antitumor activity

## Cc1cc(Oc2ccc3nc(COc4ccc(CC5SC(=O)NC5=O)cc4)n(C)c3c2)cc(C)c1N (single isomer, unassigned) [Crystalline form B, monohydrate of 5-(4-{[6-(4-amino-3,5-dimethylphenoxy)-1-methyl-1-H-benzimidazol-2-yl]methoxy}benzyl)-1,3-thiazolidine-2,4-dione dihydrochloride]
[7]
  Solubility: 155.25 µg/mL
  Solubility, assessment in words: sufficient solubility as a pharmaceutical ingredient; also recorded: higher solubility than the Compound (I) which has been known

## Cc1cc(Oc2ccc3nc(COc4ccc(CC5SC(=O)NC5=O)cc4)n(C)c3c2)cc(C)c1N (centres unmarked) [Compound (I), 5-(4-{[6-(4-amino-3,5-dimethylphenoxy)-1-methyl-1-H-benzimidazol-2-yl]methoxy}benzyl)-1,3-thiazolidine-2,4-dione]
[8]
  ability of PPARγ activation: significant ability of peroxisome proliferator-activated receptor (PPAR) γ activation

## Cc1cc(Oc2ccc3nc(COc4ccc(CC5SC(=O)NC5=O)cc4)n(C)c3c2)cc(C)c1N (single isomer, unassigned) [Crystalline form A, monohydrate of 5-(4-{[6-(4-amino-3,5-dimethylphenoxy)-1-methyl-1-H-benzimidazol-2-yl]methoxy}benzyl)-1,3-thiazolidine-2,4-dione dihydrochloride]
[7]
  Solubility: 76.92 µg/mL
  Solubility, assessment in words: sufficient solubility as a pharmaceutical ingredient
